Measured values reported in patent US8163724B2, “Glucocorticosteroids, processes for their preparation, pharmaceutical compositions containing them and their use in therapy” (AstraZeneca AB, priority 2007, dated 2012).

biological target: T1, recombinant human GR (Homo sapiens, UniProt P04150); experiment: Human Glucocorticoid Receptor (GR) Assay (fluorescence polarization, Panvera/Invitrogen kit); type: binding; conditions: not given
T1 construct: purchased Panvera/Invitrogen P2812 (kit P2893)
T1 sequence (P04150 1-777): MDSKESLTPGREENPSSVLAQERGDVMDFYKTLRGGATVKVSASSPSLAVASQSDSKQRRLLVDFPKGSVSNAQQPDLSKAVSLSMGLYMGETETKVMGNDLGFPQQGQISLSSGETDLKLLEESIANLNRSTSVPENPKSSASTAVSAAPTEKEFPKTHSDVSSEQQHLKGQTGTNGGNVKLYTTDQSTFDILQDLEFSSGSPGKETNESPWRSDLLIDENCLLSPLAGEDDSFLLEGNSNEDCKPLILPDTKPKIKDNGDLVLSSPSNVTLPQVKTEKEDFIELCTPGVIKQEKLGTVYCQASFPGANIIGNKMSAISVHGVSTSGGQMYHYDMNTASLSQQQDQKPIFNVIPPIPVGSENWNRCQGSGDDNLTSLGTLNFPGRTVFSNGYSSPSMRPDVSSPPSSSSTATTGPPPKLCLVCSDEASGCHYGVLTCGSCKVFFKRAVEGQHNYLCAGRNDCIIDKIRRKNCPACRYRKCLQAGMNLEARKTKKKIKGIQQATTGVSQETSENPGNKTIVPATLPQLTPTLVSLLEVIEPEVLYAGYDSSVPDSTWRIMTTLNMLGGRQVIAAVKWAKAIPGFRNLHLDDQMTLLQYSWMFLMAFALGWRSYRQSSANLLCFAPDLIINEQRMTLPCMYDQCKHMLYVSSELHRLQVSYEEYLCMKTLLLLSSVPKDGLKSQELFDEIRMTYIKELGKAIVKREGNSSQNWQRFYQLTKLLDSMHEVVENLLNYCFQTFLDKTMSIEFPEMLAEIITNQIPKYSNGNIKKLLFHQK
Summary of the method: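 Fluorescence polarization competition with recombinant GR and GS Red fluorescent ligand plus stabilizing peptide and DTT in potassium phosphate/sodium molybdate/EDTA buffer with DMSO. Incubated 2 hours at room temperature in the dark; 0% control DMSO, 100% control 10 μM dexamethasone.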

Which IC50 does the source give for `Cc1occc1C(=O)O[C@]1(C(=O)SCCO)CC[C@H]2[C@@H]3CCC4=Cc5c(cnn5-c5ccc(F)cc5)C[C@]4(C)[C@H]3[C@@H](O)C[C@@]21C` [Example 55, (1R,3aS,3bS,10aR,10bS,11S,12aS)-7-(4-Fluorophenyl)-11-hydroxy-1-{[(2-hydroxy-ethyl)thio]carbonyl}-10a,12a-dimethyl-1,2,3,3a,3b,4,5,7,10,10a,10b,11,12,12a-tetradecahydrocyclopenta[5,6]naphtho[1,2-f]indazol-1-yl 2-methylfuran-3-carboxylate] here?
Its IC50 is 7 nM.

same assay, conditions: fluorescence polarization; GS Red tracer; 2 hours at room temperature; 100% control 10 μM Dexamethasone; read-out: Inhibition of GR binding, IC50

`CCC(=O)O[C@]1(C(=O)SCC(=O)OC)CC[C@H]2[C@@H]3CCC4=Cc5c(cnn5-c5ccc(F)cc5)C[C@]4(C)[C@H]3[C@@H](O)C[C@@]21C` [Example 11, (1R,3aS,3bS,10aR,10bS,11S,12aS)-7-(4-Fluorophenyl)-11-hydroxy-1-{[(2-methoxy-2-oxoethyl)thio]carbonyl}-10a,12a-dimethyl-1,2,3,3a,3b,4,5,7,10,10a,10b,11,12,12a-tetradecahydrocyclopenta[5,6]naphtho[1,2-f]indazol-1-yl propanoate] was tested. Which IC50 did it give?
The IC50 was 3.8 nM.

With `C[C@]12Cc3cnn(-c4ccc(F)cc4)c3C=C1CC[C@@H]1[C@@H]2[C@@H](O)C[C@@]2(C)[C@H]1CC[C@]2(OC(=O)C1CC1)C(=O)SCC#CCO` [Example 37, (1R,3aS,3bS,10aR,10bS,11S,12aS)-7-(4-Fluorophenyl)-11-hydroxy-{[(4-hydroxybut-2-yn-1-yl)thio]carbonyl}-10a,12a-dimethyl-1,2,3,3a,3b,4,5,7,10,11a,10b,11,12,12a-tetradecahydrocyclopenta[5,6]naphtho[1,2-f]indazol-1-yl cyclopropanecarboxylate] as the molecule, how does the IC50 read?
Its IC50 is 5.7 nM.

With `C[C@]12Cc3cnn(-c4cnccn4)c3C=C1CC[C@@H]1[C@@H]2[C@@H](O)C[C@@]2(C)[C@H]1CC[C@]2(OC(=O)C1CC1)C(=O)SCC#N` [Example 189, (1R,3aS,3bS,10aR,10bS,11S,12aS)-1-{[(Cyanomethyl)sulfanyl]carbonyl}-11-hydroxy-10a,12a-dimethyl-7-pyrazin-2-yl-1,2,3,3a,3b,4,5,7,10,10a,10b,11,12,12a-tetradecahydrocyclopenta[5,6]naphtho[1,2-f]indazol-1-yl cyclopropanecarboxylate] as the molecule, how does the IC50 read?
The IC50 was 5 nM.

`C[C@]12Cc3cnn(-c4ccc(F)cc4)c3C=C1CC[C@@H]1[C@@H]2[C@@H](O)C[C@@]2(C)[C@H]1CC[C@]2(OC(=O)c1ccco1)C(=O)SCC(O)CO` (stereo partly drawn) [Example 84, (1R,3aS,3bS,10aR,10bS,11S,12aS)-1-{[(2,3-Dihydroxypropyl)sulfanyl]carbonyl}-7-(4-fluorophenyl)-11-hydroxy-10a,12a-dimethyl-1,2,3,3a,3b,4,5,7,10,10a,10b,11,12,12a-tetradecahydrocyclopenta[5,6]naphtho[1,2-f]indazol-1-yl furan-2-carboxylate] was tested. Which IC50 did it give?
Its IC50 is 5 nM.

`C[C@]12Cc3cnn(-c4ccc(F)cc4)c3C=C1CC[C@@H]1[C@@H]2[C@@H](O)C[C@@]2(C)[C@H]1CC[C@]2(OC(=O)c1ccoc1)C(=O)SCCO` [Example 52, (1R,3aS,3bS,10aR,10bS,11S,12aS)-7-(4-Fluorophenyl)-11-hydroxy-1-{[(2-hydroxy-ethyl)thio]carbonyl}-10a,12a-dimethyl-1,2,3,3a,3b,4,5,7,10,10a,10b,11,12,12a-tetradecahydrocyclopenta[5,6]naphtho[1,2-f]indazol-1-yl furan-3-carboxylate] was tested. Which IC50 did it give?
The IC50 was 6.4 nM.

For `C[C@]12Cc3cnn(-c4ccc(F)nc4)c3C=C1CC[C@@H]1[C@@H]2[C@@H](O)C[C@@]2(C)[C@H]1CC[C@]2(OC(=O)[C@H]1CCCO1)C(=O)SCC#N` [Example 185, (1R,3aS,3bS,10aR,10bS,11S,12aS)-1-{[(Cyanomethyl)sulfanyl]carbonyl}-7-(6-fluoropyridin-3-yl)-11-hydroxy-10a,12a-dimethyl-1,2,3,3a,3b,4,5,7,10,10a,10b,11,12,12a-tetradecahydrocyclopenta[5,6]naphtho[1,2-f]indazol-1-yl (2R)-tetrahydrofuran-2-carboxylate], which IC50 is on record?
The IC50 was 2.7 nM.

With `COCC(=O)O[C@]1(C(=O)SCC#N)CC[C@H]2[C@@H]3CCC4=Cc5c(cnn5-c5ccc(F)cc5)C[C@]4(C)[C@@]3(F)[C@@H](O)C[C@@]21C` [Example 197, (1R,3aS,3bS,10aS,10bR,11S,12aS)-1-{[(Cyanomethyl)sulfanyl]carbonyl}-10b-fluoro-7-(4-fluorophenyl)-11-hydroxy-10a,12a-dimethyl-1,2,3,3a,3b,4,5,7,10,10a,10b,11,12,12a-tetradecahydrocyclopenta[5,6]naphtho[1,2-f]indazol-1-yl methoxyacetate] as the molecule, how does the IC50 read?
The IC50 was 3.3 nM.

How did the IC50 turn out when `COCCC(=O)O[C@]1(C(=O)SCC#N)CC[C@H]2[C@@H]3CCC4=Cc5c(cnn5-c5ccc(F)cc5)C[C@]4(C)[C@H]3[C@@H](O)C[C@@]21C` [Example 62, (1R,3aS,3bS,10aR,10bS,11S,12aS)-1-{[(Cyanomethyl)thio]carbonyl}-7-(4-fluorophenyl)-11-hydroxy-10a,12a-dimethyl-1,2,3,3a,3b,4,5,7,10,10a,10b,11,12,12a-tetradecahydrocyclopenta[5,6]naphtho[1,2-f]indazol-1-yl 3-methoxypropanoate] was run?
The IC50 was 2.2 nM.

With `COCCCSC(=O)[C@@]1(OC(=O)c2ccco2)CC[C@H]2[C@@H]3CCC4=Cc5c(cnn5-c5ccc(F)cc5)C[C@]4(C)[C@H]3[C@@H](O)C[C@@]21C` [Example 85, (1R,3aS,3bS,10aR,10bS,11S,12aS)-7-(4-Fluorophenyl)-11-hydroxy-{[(3-methoxypropyl)sulfanyl]carbonyl}-10a,12a-dimethyl-1,2,3,3a,3b,4,5,7,10,10a,10b,11,12,12a-tetradecahydrocyclopenta[5,6]naphtho[1,2-f]indazol-1-yl furan-2-carboxylate] as the molecule, how does the IC50 read?
Its IC50 is 6.3 nM.

With `C[C@]12Cc3cnn(-c4ccccn4)c3C=C1CC[C@@H]1[C@@H]2[C@@H](O)C[C@@]2(C)[C@H]1CC[C@]2(OC(=O)C1CC1)C(=O)SCF` [Example 149, (1R,3aS,3bS,10aR,10bS,11S,12aS)-1-{[(Fluoromethyl)sulfanyl]carbonyl}-11-hydroxy-10a,12a-dimethyl-7-pyridin-2-yl-1,2,3,3a,3b,4,5,7,10,10a,10b,11,12,12a-tetradecahydrocyclopenta[5,6]naphtho[1,2-f]indazol-1-yl cyclopropane Carboxylate] as the molecule, how does the IC50 read?
Its IC50 is 5 nM.

`C[C@]12Cc3cnn(-c4ccc(Cl)cn4)c3C=C1CC[C@@H]1[C@@H]2[C@@H](O)C[C@@]2(C)[C@H]1CC[C@]2(OC(=O)C1CC1)C(=O)SCF` [Example 150, (1R,3aS,3bS,10aR,10bS,11S,12aS)-7-(5-Chloropyridin-2-yl)-1-{[(fluoromethyl)sulfanyl]carbonyl}-11-hydroxy-10a,12a-dimethyl-1,2,3,3a,3b,4,5,7,10,10a,10b,11,12,12a-tetradecahydrocyclopenta[5,6]naphtho[1,2-f]indazol-1-yl cyclopropane Carboxylate] was tested. Which IC50 did it give?
Its IC50 is 21 nM.

With `C[C@]12Cc3cnn(-c4ccc(F)nc4)c3C=C1CC[C@H]1[C@@H]3CC[C@](OC(=O)c4ccco4)(C(=O)SCF)[C@@]3(C)C[C@H](O)[C@@]12F` [Example 212, (1R,3aS,3bS,10aS,10bR,11S,12aS)-1-{[(Fluoromethyl)sulfanyl]carbonyl}-10b-fluoro-7-(6-fluoropyridin-3-yl)-11-hydroxy-10a,12a-dimethyl-1,2,3,3a,3b,4,5,7,10a,10b,11,12,12a-tetradecahydrocyclopenta[5,6]naphtho[1,2-f]indazol-1-yl furan-2-carboxylate] as the molecule, how does the IC50 read?
The IC50 was 2.1 nM.

With `C=CCOCc1cc(-n2ncc3c2C=C2CC[C@@H]4[C@H]([C@@H](O)C[C@@]5(C)[C@H]4CC[C@]5(OC(=O)c4ccco4)C(=O)SCC#N)[C@@]2(C)C3)ccc1F` [Example 77, (1R,3aS,3bS,10aR,10bS,11S,12aS)-1-{[(Cyanomethyl)thio]carbonyl}-7-{4-fluoro-3-[(prop-2-en-1-yloxy)methyl]phenyl}-11-hydroxy-10a,12a-dimethyl-1,2,3,3a,3b, 4,5,7,10,10a,10b,11,12,12a-tetradecahydrocyclopenta[5,6]naphtho[1,2-f]indazol-1-yl furan-2-carboxylate] as the molecule, how does the IC50 read?
The IC50 was 22 nM.

For `C[C@]12Cc3cnn(-c4ccc(F)cc4F)c3C=C1CC[C@@H]1[C@@H]2[C@@H](O)C[C@@]2(C)[C@H]1CC[C@]2(OC(=O)c1ccco1)C(=O)SCC#N` [Example 101, (1R,3aS,3bS,10aR,10bS,11S,12aS)-1-{[(Cyanomethyl)thio]carbonyl}-7-(2,4-difluorophenyl)-11-hydroxy-10a,12a-dimethyl-1,2,3,3a,3b,4,5,7,10,10a,10b,11,12,12a-tetradecahydrocyclopenta[5,6]naphtho[1,2-f]indazol-1-yl furan-2-carboxylate], which IC50 is on record?
Its IC50 is 29 nM.
